Where two headings read alike, the source gives them in different places.
How the values were obtained:
D(II)-D(III) FGFR1 = conditions: titrating calorimetry, read-out: Kd (298° K) Literature; cited from earlier work
[1] = biological target: T1, heparin binding site of basic fibroblast growth factor (bFGF) (Homo sapiens, UniProt P09038); assay: Microplate thermal shift assay for ligands binding to bFGF; conditions: read-out: binding affinity
T1 construct: host or cells: E. coli
Text: The microplate thermal shift assay was used to assess ligands for binding to the heparin binding site of basic fibroblast growth factor (bFGF). The gene for bFGF was purchased from R&D Systems and was cloned and expressed in E. coli as previously described (Thompson, L. D. et al., Biochemistry 33:3831-3840 (1994); Pantoliano, M. W. et al., Biochemistry 33:10229-10248 (1994); Springer, B. A. et al., J. Biol. Chem. 269:26879-26884 (1994)).

[2] = biological target: T2, acidic fibroblast growth factor (aFGF) (Homo sapiens, UniProt P05230); assay: Microplate thermal shift assay for ligands binding to aFGF, turbidity as signal
T2 construct: host or cells: E. coli
T2 sequence (P05230 whole entry, species assumed): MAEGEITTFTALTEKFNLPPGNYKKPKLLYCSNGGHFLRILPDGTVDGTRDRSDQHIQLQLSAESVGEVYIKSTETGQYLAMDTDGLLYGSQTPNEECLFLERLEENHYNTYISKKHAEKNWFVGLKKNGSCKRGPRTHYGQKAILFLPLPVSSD
Text: The second therapeutic receptor tested in the microplate thermal shift assay was acidic fibroblast growth factor (aFGF), a growth factor that plays a key role in angiogenesis (Folkman, J. et al., J. Biol. Chem. 267:10931-10934 (1992)). A synthetic gene for this protein was purchased from R&D Systems (Minneapolis, Minn.), and was cloned and expressed in E. coli using methods similar to those described for basic fibroblast growth factor (bFGF) (Thompson, L. D. et al., Biochemistry 33:3831-3840 (1994); Pantoliano, M. W. et al., Biochemistry 33:10229-10248 (1994); Springer, B. A. et al., J. Biol. Chem. 269:26879-26884 (1994)). Recombinant aFGF was then purified by heparin-sepharose affinity chromatography as described (Thompson, L. D. et al., Biochemistry 33:3831-3840 (1994)). aFGF is also known to bind heparin/heparan, which is a cofactor for mitogenic activity. […] A microplate thermal assay of these compounds was set up in a way similar to that described above for human α-thrombin. […] The affinity constants covered a fairly broad range of binding affinities, with pentosan PSO4 showing the highest affinity.

bFGF = bFGF (Homo sapiens, UniProt P09038); conditions: binding to bFGF by isothermal titrating calorimetry; read-out: Ki (298° K) Literature; cited from earlier work
bFGF, sequence (P09038 134-288, species assumed): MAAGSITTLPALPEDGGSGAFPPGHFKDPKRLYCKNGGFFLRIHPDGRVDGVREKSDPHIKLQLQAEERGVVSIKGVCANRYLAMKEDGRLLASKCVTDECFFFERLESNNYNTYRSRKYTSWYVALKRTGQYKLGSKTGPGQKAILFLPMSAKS

[3] = tested on: D(II) domain of human FGF receptor 1; assay: Microplate thermal shift assay for ligands binding to D(II) FGFR1, fluorescence emission as signal
D(II) domain of human FGF receptor 1, sequence (P11362 158-246 limits assumed): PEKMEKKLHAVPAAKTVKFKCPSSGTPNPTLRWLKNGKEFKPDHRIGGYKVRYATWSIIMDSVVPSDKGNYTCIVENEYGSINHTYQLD
Text: The microplate thermal-shift assay was employed to test the binding of heparin 5000 and pentosan PSO4 to the known heparin binding site in the D(II) domain of fibroblast growth factor receptor 1 (FGFR1). D(II) FGFR1 is a 124 residue domain which is responsible for most of the free energy of binding for bFGF. D(II) FGFR1 was cloned and expressed in E. coli. Recombinant D(II) FGFR1 was renatured from inclusion bodies essentially as described (Wetmore, D. R. et al., Proc. Soc. Mtg., San Diego, Calif. (1994)), except that a hexa-histidine tag was included at the N-terminus to facilitate recovery by affinity chromatography on a Ni^2+ chelate column (Janknecht, R. et al., Natl. Acad. Sci. USA 88:8972-8976 (1991)). D(II) FGFR1 was further purified on a heparin-sepharose column (Kan, M. et al., Science 259:1918-1921 (1993); Pantoliano, M. W. et al., Biochemistry 33:10229-10248 (1994)). Purity was >95%, as judged by SDS-PAGE. The D(II) FGFR1 protein was concentrated to 12 mg/mL (˜1 mM) and stored at 4° C.
The D(II) FGFR1 protein was dissolved in an ANS solution to a concentration of […] (70 μM). The quantum yield for ANS bound to the denatured form of D(II) FGFR1 was lower than the quantum yield for ANS bound to human α-thrombin. Because ANS fluorescence is very environment dependent (see Lakowicz, I. R. Principles of Fluorescence Spectroscopy, Plenum Press, New York (1983)), the quantum yield observed for the denaturation of different proteins will vary. For D(II) FGFR1, the signal for the turbidity version of the assay, however, was nearly undetectable. Despite the decreased sensitivity for D(II) FGFR1, ANS rescued this system for the microplate assay. A similar-result was obtained for Factor Xa, except that the fluorescence quantum yield for ANS bound to denatured Factor Xa was almost as good as it was for human α-thrombin.

[4] = many effects described as coagulation anomalies; cited from earlier work
[5] = biological target: T3, heparin binding site of human α-thrombin (Homo sapiens, UniProt P00734); assay: Microplate thermal shift assay, ligands binding to the heparin binding site, turbidity as signal
T3 construct: A stock human α-thrombin solution; purchased Enzyme Research Labs
Text: Assays for ligands that bind to the heparin binding site of human α-thrombin are more difficult to perform than assays for ligands that bind to the active site of human α-thrombin. At the heparin binding site, no substrate is hydrolyzed, so no spectrophotometric signal can be amplified for instrumental detection. Heparin activity is usually estimated in biological clotting time assays. […] Thus, heparin binding to human α-thrombin represents the kind of challenge encountered with the vast majority of non-enzyme receptor/ligand binding events, which are commonly observed for hormone/receptor interactions, repressor/DNA interactions, neurotransmitter/receptor interactions, etc. Several heparin-like sulfated oligosaccharides and sulfated naphthalene compounds were assayed by the microplate thermal shift assay. Using the thermal shift assay, it was possible to use a single compound per well to quickly rank the compounds in order of increasing binding affinity, with Kd's ranging over three orders of magnitude (see Table 4). Like the experiment in Example 1, the thermal shift assay results agreed closely with the results obtained through an alternative method, which required a series of laborious (15 to 20 single determinations) fluorescence quench assays over a wide range of concentrations of low MW heparin (Olson, S. T. et al., J. Biol. Chem. 266:6342-6352 (1991)).

[6] = literature; cited from earlier work
[7] = equation (1), estimated ΔHu 60.0 kcal/mole, ΔCpu 0.95 kcal/mole-°K, read-out: Kd at Tm

D(II)-D(III) FGFR1, sequence (P11362 150-254 limits assumed): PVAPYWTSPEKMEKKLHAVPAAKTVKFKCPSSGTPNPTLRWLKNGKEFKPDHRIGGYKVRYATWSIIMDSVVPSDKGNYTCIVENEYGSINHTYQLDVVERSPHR
T1 sequence (P09038 134-288, species assumed): as the sequence (P09038 134-288, species assumed) above

Kd [1]: 55 nM | Tm ([2]; aFGF/ligand, aFGF 0.25 mg/mL, ligand 47-200 μM, turbidity): 336.15 ° K | Kd [2, 7]: 208 nM | Kd ([2]; equation (3), ΔHL estimated −10.0 kcal/mole, read-out: Kd at 298° K Observed): 31 nM | Tm ([3]; D(II) FGFR1 70 μM, 136 μM ANS, ligand 150-156 μM): 319.4 ° K | Kd [3, 7]: 19100 nM | Kd ([3]; equation (3), ΔHL −12.1 (pentosan PSO4) and −7.48 kcal/mole (heparin 5000), read-out: Kd at 298° K Observed): 4900 nM | Kd ([5]; calculated with equation (1), read-out: Kd at Tm): 2420 nM | Kd ([5]; estimated with equation (3), ΔHL estimated −10.0 kcal/mole, read-out: Kd at 298° K Observed): 427 nM | affinity at Tm, fold higher than the affinity of heparin 5000 ([5]; thermal shift assay, at Tm): 7 fold | Tm ([5]; thrombin/ligand complex, 11 μM thrombin, ligand 40-102 μM, turbidity): 332.15 ° K
Substance: pentosan polysulfate [Pentosan PSO4]
Kd (D(II)-D(III) FGFR1): 10900 nM | Ki (bFGF): 88 nM | outcome of clinical trials [4]: discounted due to toxic effects | anticoagulant properties [6]: anticoagulant properties

— patent US20020114734A1, “Microplate thermal shift assay apparatus for ligand development and multi-variable protein chemistry optimization” (priority 1996, published 2002)
